Test results reported in US12590091B2, “1H-pyrrolo[3,2-C]pyridine and 1H-pyrrolo[2,3-C]pyridine derivatives as TLR9 inhibitors for the treatment of fibrosis” (BRISTOL-MYERS SQUIBB COMPANY, priority 2020, dated 2026).

Molecular target: T1, human TLR7 (Homo sapiens, UniProt Q9NYK1)
T1 construct: host or cells: HEK-Blue cells
T1 sequence (Q9NYK1 27-1049): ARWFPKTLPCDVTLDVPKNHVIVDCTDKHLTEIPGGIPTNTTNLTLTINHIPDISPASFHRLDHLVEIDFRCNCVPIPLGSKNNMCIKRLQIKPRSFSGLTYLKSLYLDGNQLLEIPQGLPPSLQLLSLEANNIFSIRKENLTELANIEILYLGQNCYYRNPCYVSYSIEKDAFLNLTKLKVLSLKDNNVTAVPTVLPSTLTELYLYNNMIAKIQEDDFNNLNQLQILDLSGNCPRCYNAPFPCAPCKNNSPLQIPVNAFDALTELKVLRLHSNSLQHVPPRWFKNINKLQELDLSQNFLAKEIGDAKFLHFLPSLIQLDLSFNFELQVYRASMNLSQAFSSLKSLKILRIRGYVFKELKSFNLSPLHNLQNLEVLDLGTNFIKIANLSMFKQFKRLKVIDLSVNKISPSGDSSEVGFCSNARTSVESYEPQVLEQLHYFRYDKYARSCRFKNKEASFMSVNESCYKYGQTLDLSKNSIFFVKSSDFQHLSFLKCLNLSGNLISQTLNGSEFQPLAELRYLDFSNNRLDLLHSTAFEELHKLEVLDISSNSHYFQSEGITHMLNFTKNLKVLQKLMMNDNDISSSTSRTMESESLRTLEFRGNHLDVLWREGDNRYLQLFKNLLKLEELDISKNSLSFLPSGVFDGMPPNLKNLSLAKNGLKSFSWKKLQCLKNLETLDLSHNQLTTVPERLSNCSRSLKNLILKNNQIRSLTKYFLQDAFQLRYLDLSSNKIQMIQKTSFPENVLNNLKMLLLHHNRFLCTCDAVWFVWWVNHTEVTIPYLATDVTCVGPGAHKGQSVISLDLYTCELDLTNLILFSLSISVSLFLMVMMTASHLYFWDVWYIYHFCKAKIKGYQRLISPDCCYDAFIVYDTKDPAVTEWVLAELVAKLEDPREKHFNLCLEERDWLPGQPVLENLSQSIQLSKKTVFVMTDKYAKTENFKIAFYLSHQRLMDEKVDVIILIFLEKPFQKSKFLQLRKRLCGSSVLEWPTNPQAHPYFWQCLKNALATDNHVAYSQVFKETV
Experiment: TLR7 inhibition reporter assay (HEK-Blue cells, SEAP reporter)
Format: cell-based
Settings: HEK-Blue cells overexpressing human TLR7, stimulated with gardiquimod 7.5 μM, 22 hour incubation
In short: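 Agonists used: gardiquimod 7.5 μM (TLR7), R848 15.9 μM (TLR8), ODN2006 5 nM (TLR9), added after 30 min room-temperature compound pre-treatment (0.05 nM–50 μM) of receptor-overexpressing HEK-Blue cells. SEAP reporter (NF-κB/AP-1 driven) read after 22 h at 37 °C; inhibition scaled between agonist+DMSO and reference-inhibitor wells.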

Row | SMILES | IC50 [µM]
1 | Cc1nc(-c2cc(F)c(C3(O)CCN(CC(C)C)CC3)cc2F)cc2c1cc(-c1ccc(S(C)(=O)=O)cc1)n2C [Example 94, 4-(4-(1,4-dimethyl-2-(4-(methylsulfonyl)phenyl)-1H-pyrrolo[3,2-c]pyridin-6-yl)-2,5-difluorophenyl)-1-isobutylpiperidin-4-ol] | 3.6
2 | COc1ccc(-c2cc3cnc(C4CCN(Cc5ccc(C)nc5)CC4)cc3n2C)cc1OC [Example 8, 2-(3,4-Dimethoxyphenyl)-1-methyl-6-(1-((6-methylpyridin-3-yl)methyl)piperidin-4-yl)-1H-pyrrolo[3,2-c]pyridine] | 6.8
3 | Cc1nc(-c2cc(F)c(N3CCN4CCCC4C3)cc2F)cc2c1cc(-c1ccc(S(C)(=O)=O)cc1)n2C (stereo not drawn) [Example 97, 6-(2,5-difluoro-4-(hexahydropyrrolo[1,2-a]pyrazin-2(1H)-yl)phenyl)-1,4-dimethyl-2-(4-(methylsulfonyl)phenyl)-1H-pyrrolo[3,2-c]pyridine] | 3.8
4 | Cc1nc(-c2cc(F)c(N3CCN(C4CCOCC4)CC3)c(F)c2)cc2c1cc(-c1ccc(S(C)(=O)=O)cc1)n2C [Example 89, 6-(3,5-difluoro-4-(4-(tetrahydro-2H-pyran-4-yl)piperazin-1-yl)phenyl)-1,4-dimethyl-2-(4-(methylsulfonyl)phenyl)-1H-pyrrolo[3,2-c]pyridine] | > 50
5 | Cc1nc(-c2ccc(C3(O)CC4CCC(C3)N4CC(C)C)c(F)c2)cc2c1cc(-c1ccc(S(C)(=O)=O)cc1)n2C [Example 91, (1R,3r,5S)-3-(4-(1,4-dimethyl-2-(4-(methylsulfonyl)phenyl)-1H-pyrrolo[3,2-c]pyridin-6-yl)-2-fluorophenyl)-8-isobutyl-8-azabicyclo[3.2.1]octan-3-ol] | 30.8
6 | Cc1nc(-c2ccc(C3(O)CCN(C4CC4)CC3)c(F)c2)cc2c1cc(-c1ccc(S(C)(=O)=O)cc1)n2C [Example 93, 1-cyclopropyl-4-(4-(1,4-dimethyl-2-(4-(methylsulfonyl)phenyl)-1H-pyrrolo[3,2-c]pyridin-6-yl)-2-fluorophenyl)piperidin-4-ol] | 9.9
7 | COCCN1CCC(O)(c2cc(F)c(-c3cc4c(cc(-c5ccc(S(C)(=O)=O)cc5)n4C)c(C)n3)cc2F)CC1 [Example 95, 4-(4-(1,4-dimethyl-2-(4-(methylsulfonyl)phenyl)-1H-pyrrolo[3,2-c]pyridin-6-yl)-2,5-difluorophenyl)-1-(2-methoxyethyl)piperidin-4-ol] | 3.2
8 | Cc1nc(-c2cc(F)c(N3CCN4CCCC4C3)c(F)c2)cc2c1cc(-c1ccc(S(C)(=O)=O)cc1)n2C (stereo not drawn) [Example 98, 6-(3,5-difluoro-4-(hexahydropyrrolo[1,2-a]pyrazin-2(1H)-yl)phenyl)-1,4-dimethyl-2-(4-(methylsulfonyl)phenyl)-1H-pyrrolo[3,2-c]pyridine] | 0.7

Now from value to compound:

Row | IC50 [µM] | SMILES
9 | 2.9 | Cc1nc(-c2cc(F)c(C3(O)CCN(C4CC4)CC3)cc2F)cc2c1cc(-c1ccc(S(C)(=O)=O)cc1)n2C [Example 96, 1-cyclopropyl-4-(4-(1,4-dimethyl-2-(4-(methylsulfonyl)phenyl)-1H-pyrrolo[3,2-c]pyridin-6-yl)-2,5-difluorophenyl)piperidin-4-ol]
10 | 7.8 | Cc1nc(-c2ccc(C3(O)CCN(CC(C)C)CC3)c(F)c2)cc2c1cc(-c1ccc(S(C)(=O)=O)cc1)n2C [Example 90, 4-(4-(1,4-dimethyl-2-(4-(methylsulfonyl)phenyl)-1H-pyrrolo[3,2-c]pyridin-6-yl)-2-fluorophenyl)-1-isobutylpiperidin-4-ol]
11 | > 50 | CCOC(=O)N1CCC(N2CCC(c3cc4c(cn3)cc(-c3ccc(OC)c(OC)c3)n4C)CC2)CC1 [Example 7, Ethyl 4-(2-(3,4-dimethoxyphenyl)-1-methyl-1H-pyrrolo[3,2-c]pyridin-6-yl)-[1,4′-bipiperidine]-1′-carboxylate]
12 | 7 | COCCN1CCC(O)(c2ccc(-c3cc4c(cc(-c5ccc(S(C)(=O)=O)cc5)n4C)c(C)n3)cc2F)CC1 [Example 92, 4-(4-(1,4-dimethyl-2-(4-(methylsulfonyl)phenyl)-1H-pyrrolo[3,2-c]pyridin-6-yl)-2-fluorophenyl)-1-(2-methoxyethyl)piperidin-4-ol]
